What was measured:
[1] = Dynamic vapor sorption (DVS) hygroscopicity; type: physicochemical; details: at 80% RH, 25° C.
Description: Form A may be observed EP-1. […] (peak temperature) which is accompanied by 5.9 wt % weight loss up to ˜150° C. in the TGA curve (FIG. 3). […] Form A is hygroscopic as indicated by water adsorption of 5.8 wt % at 80% RH measured by dynamic vapor sorption (DVS) (FIG. 4). A solid is considered moderately hygroscopic when water uptake at 25° C./80% RH is between 2-15 wt % based on criteria of European Pharmacopeia.
Form B of EP-1 trihydrate (x is 3) is a trihydrate as confirmed by single crystal analysis. The experimental XRPD pattern of Form B matches well with the simulated one from single crystal data (FIG. 6). This was also confirmed by DSC and TGA data (FIG. 7 and FIG. 8, respectively). DSC data indicates Form B dehydrates at ˜132° C. […] Form B is slightly hygroscopic as evidenced by a weight change of ˜0.3% between 0% and 95% RH (FIG. 9), (data collection was programmed from 95% RH-0% RH-95% RH at a step size of 10% RH at 25° C.).

[2] = Solubility in Simulated Gastric Fluid (SGF) at 37° C.; type: physicochemical
Description: To study if Form A and Form B would perform differently in stomach, the solubilities of Form A and Form B were measured in Simulated Gastric Fluid (SGF, see below for SGF preparation) at 37° C. In these experiments, about 100 mg Form A and 50 mg Form B were weighed into 20-ml glass vials, followed by addition of 4 ml SGF into each vial and the samples were stirred at 37° C. Aliquots were taken for solubility determination using HPLC after 15, 30, and 60 min, respectively. The remaining solids after each time point were subject to XRPD analysis.
Weigh appropriate amount of hydrochloride (HCl) and sodium chloride (NaCl) into a 1-L flask followed by addition of 1-L deionized water. The mixture was stirred until all solids are dissolved. Check pH value with a pH-meter and adjust the pH to 1.8 with HCl (1N) or NaOH (1N).

water adsorption [1]: 5.8 wt %
time of conversion to Form B in SGF [2]: ≤ 15 min
solubility at 15 min ([2]; Simulated Gastric Fluid (SGF), pH 1.8, simulated gastric fluid, thermodynamic from solid, 15 min, calculated using free base content): 5400 µg/mL
solubility at 30 min ([2]; Simulated Gastric Fluid (SGF), pH 1.8, simulated gastric fluid, thermodynamic from solid, 30 min, calculated using free base content): 5500 µg/mL
solubility at 60 min ([2]; Simulated Gastric Fluid (SGF), pH 1.8, simulated gastric fluid, thermodynamic from solid, 60 min, calculated using free base content): 5300 µg/mL
Structure (SMILES): CC(C)N(CC1O[C@@H](n2cnc3c(N)ncnc32)[C@H](O)[C@@H]1O)C1CC(CCc2nc3cc(C(C)(C)C)ccc3[nH]2)C1 (stereo partly drawn) [Form A, (2R,3R,4S,5R)-2-(6-amino-9H-purin-9-yl)-5-((((1r,3S)-3-(2-(5-(tert-butyl)-1H-benzo[d]imidazol-2-yl)ethyl)cyclobutyl)(isopropyl)amino)methyl)tetrahydrofuran-3,4-diol hydrate]
